Measurements taken from patent US20100137449A1, “SUBSTITUTED 1,3-CYCLOPENTADIONE MULTI-TARGET PROTEIN KINASE MODULATORS OF CANCER, ANGIOGENESIS AND THE INFLAMMATORY PATHWAYS ASSOCIATED THEREWITH” (METAPROTEOMICS, LLC, priority 2007, published 2010).

Columns and labels:
Bmx(h) = target: T1, Bmx(h) (Homo sapiens, UniProt P51813); experiment: KinaseProfiler Assay
T1 sequence (P51813 1-675): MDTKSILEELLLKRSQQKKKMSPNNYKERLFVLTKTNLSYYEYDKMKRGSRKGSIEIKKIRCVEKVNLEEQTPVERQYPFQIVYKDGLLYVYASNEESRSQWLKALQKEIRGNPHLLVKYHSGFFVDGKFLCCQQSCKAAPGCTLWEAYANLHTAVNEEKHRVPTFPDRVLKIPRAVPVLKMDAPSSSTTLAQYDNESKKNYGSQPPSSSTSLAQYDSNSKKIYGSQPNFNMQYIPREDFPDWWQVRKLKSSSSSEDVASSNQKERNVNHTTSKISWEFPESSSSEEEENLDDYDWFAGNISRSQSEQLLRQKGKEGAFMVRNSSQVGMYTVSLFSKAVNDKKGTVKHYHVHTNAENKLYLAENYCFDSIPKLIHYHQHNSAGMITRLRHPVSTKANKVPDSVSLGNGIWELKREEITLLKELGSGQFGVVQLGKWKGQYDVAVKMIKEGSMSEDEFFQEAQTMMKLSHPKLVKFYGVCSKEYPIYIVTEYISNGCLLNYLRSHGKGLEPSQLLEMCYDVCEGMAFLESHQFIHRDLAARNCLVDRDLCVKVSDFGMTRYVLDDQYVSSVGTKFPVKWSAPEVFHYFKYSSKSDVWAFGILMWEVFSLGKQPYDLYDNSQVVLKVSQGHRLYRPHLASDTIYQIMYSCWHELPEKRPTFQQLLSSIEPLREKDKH

Arg(m) = Arg(m) (Mus musculus, UniProt Q4JIM5); experiment: KinaseProfiler Assay
Chain of Arg(m) (Q4JIM5 whole entry): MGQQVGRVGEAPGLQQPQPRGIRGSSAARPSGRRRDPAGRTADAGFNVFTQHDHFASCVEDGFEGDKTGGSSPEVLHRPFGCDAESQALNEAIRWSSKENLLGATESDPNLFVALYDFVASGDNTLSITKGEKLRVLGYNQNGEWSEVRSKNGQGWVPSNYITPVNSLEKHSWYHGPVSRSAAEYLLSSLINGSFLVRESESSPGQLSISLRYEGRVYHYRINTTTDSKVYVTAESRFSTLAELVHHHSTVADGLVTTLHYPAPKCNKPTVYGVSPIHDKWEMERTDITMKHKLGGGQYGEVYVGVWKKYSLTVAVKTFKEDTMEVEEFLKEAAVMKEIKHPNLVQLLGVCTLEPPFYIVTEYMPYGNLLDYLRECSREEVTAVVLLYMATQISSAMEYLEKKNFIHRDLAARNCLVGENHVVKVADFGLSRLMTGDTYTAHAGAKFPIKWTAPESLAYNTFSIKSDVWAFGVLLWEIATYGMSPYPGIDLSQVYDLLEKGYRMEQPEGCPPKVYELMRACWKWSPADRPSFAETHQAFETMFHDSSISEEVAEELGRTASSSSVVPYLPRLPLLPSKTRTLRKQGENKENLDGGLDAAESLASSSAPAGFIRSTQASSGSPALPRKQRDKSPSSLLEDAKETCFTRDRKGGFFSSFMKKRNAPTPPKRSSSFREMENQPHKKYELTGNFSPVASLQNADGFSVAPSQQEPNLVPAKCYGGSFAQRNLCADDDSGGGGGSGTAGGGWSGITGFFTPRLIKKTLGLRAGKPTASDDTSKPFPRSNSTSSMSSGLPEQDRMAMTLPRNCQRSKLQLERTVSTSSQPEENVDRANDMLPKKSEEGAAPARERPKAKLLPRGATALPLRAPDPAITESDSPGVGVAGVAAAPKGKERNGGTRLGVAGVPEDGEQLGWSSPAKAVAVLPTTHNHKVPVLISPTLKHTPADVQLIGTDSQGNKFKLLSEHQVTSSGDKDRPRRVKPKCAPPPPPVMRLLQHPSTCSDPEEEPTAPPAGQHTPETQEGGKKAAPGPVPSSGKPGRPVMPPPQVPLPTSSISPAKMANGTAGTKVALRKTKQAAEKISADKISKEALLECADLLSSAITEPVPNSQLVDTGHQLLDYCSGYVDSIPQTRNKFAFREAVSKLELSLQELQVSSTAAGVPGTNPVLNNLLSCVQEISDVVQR

## CC(C)CCC(=O)[C@]1(O)C(O)=C(C(=O)C(C)C)C(=O)[C@H]1CCC(C)C [TH2, tetrahydroiso-cohumulone]
Bmx(h); 1 μg/ml
  kinase inhibition: 88% of control
Bmx(h); 5 μg/ml
  kinase inhibition: 90% of control
Bmx(h); 25 μg/ml
  kinase inhibition: 89% of control
Bmx(h); 50 μg/ml
  kinase inhibition: 79% of control
Bmx(h); 100 μg/ml
  kinase inhibition: 61% of control
Arg(m); 1 μg/ml
  kinase inhibition: 100% of control
Arg(m); 5 μg/ml
  kinase inhibition: 101% of control
Arg(m); 25 μg/ml
  kinase inhibition: 103% of control
Arg(m); 50 μg/ml
  kinase inhibition: 88% of control
Arg(m); 100 μg/ml
  kinase inhibition: 62% of control
